Measurements reported in PubChem BioAssay AID330 (DTP/NCI, 2004).
Several values for one entry are separate records, joined by “and”; a condition that tells them apart may be missing. Equal values may be shown once. Toxic doses and inconclusive results are not listed.

System: P388 leukemia ip, CD2F1 mice, survival T/C
Assay: NCI In Vivo Anticancer Drug Screen. Data for tumor model P388 Leukemia (intraperitoneal) in CD2F1 (CDF1) mice
Details: endpoint: median survival time, higher = longer survival
Procedure, shortened: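 Mice carrying the transplanted tumor received test compound or vehicle. Survival was recorded in each group, and the value is the treated-group measurement divided by that of the vehicle-treated control group.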

[1] = dose: 60.0 mg/kg/injection, schedule: Q01DX005 (ip), vehicle: saline with Tween-80
[2] = dose: 60.0 mg/kg/injection, schedule: Q01DX005 (ip), vehicle: saline
[3] = dose: 120.0 mg/kg/injection, schedule: Q01DX005 (ip), vehicle: saline
[4] = dose: 240.0 mg/kg/injection, schedule: Q01DX005 (ip), vehicle: saline
[5] = dose: 50.0 mg/kg/injection, schedule: Q01DX009 (ip), vehicle: Klucel (hydroxypropylcellulose) (HPC)
[6] = dose: 200.0 mg/kg/injection, schedule: Q01DX009 (ip), vehicle: Klucel (hydroxypropylcellulose) (HPC)
[7] = dose: 50.0 mg/kg/injection, schedule: Q01DX009 (ip), vehicle: saline with Tween-80
[8] = dose: 100.0 mg/kg/injection, schedule: Q01DX009 (ip), vehicle: saline with Tween-80
[9] = dose: 200.0 mg/kg/injection, schedule: Q01DX009 (ip), vehicle: saline with Tween-80
[10] = dose: 120.0 mg/kg/injection, schedule: Q01DX005 (ip), vehicle: saline with Tween-80
[11] = dose: 240.0 mg/kg/injection, schedule: Q01DX005 (ip), vehicle: saline with Tween-80

## CC(=O)NC(Cc1cnc[nH]1)C(=O)O (stereo not drawn)
dose: 100.0 mg/kg/injection, schedule: Q04DX003 (ip), vehicle: saline with Tween-80
  T/C: 98 % of control
dose: 200.0 mg/kg/injection, schedule: Q04DX003 (ip), vehicle: saline with Tween-80
  T/C: 99 % of control
dose: 400.0 mg/kg/injection, schedule: Q04DX003 (ip), vehicle: saline with Tween-80
  T/C: 100 % of control

## COC1NC(=O)NC(=O)C1=[N+]=[N-] (stereo not drawn)
dose: 2.5 mg/kg/injection, schedule: Q01DX009 (ip), vehicle: saline
  T/C: 168 % of control
dose: 5.0 mg/kg/injection, schedule: Q01DX009 (ip), vehicle: saline sonified
  T/C: 163 % of control
dose: 5.0 mg/kg/injection, schedule: Q01DX009 (ip), vehicle: saline with Tween-80
  T/C: 154 % of control
dose: 7.5 mg/kg/injection, schedule: Q01DX009 (ip), vehicle: saline with Tween-80
  T/C: 191 % of control
dose: 10.0 mg/kg/injection, schedule: Q01DX009 (ip), vehicle: saline sonified
  T/C: 159 % of control
dose: 75.0 micrograms/kg/injection, schedule: Q01DX009 (ip), vehicle: saline
  T/C: 109 % of control
dose: 150.0 micrograms/kg/injection, schedule: Q01DX009 (ip), vehicle: saline
  T/C: 113 % of control

## O=C(Cc1cccc(CC(=O)c2ccccc2)n1)c1ccccc1
dose: 15.0 mg/kg/injection, schedule: Q01DX005 (ip), vehicle: saline with Tween-80
  T/C: 108 % of control
dose: 30.0 mg/kg/injection, schedule: Q01DX005 (ip), vehicle: saline with Tween-80
  T/C: 92 % of control
[1]
  T/C: 92 % of control and 93 % of control

## CCOC(=O)C(NC(=O)c1ccccc1)(C(=O)OCC)c1ccccn1
[2]
  T/C: 99 % of control
[3]
  T/C: 99 % of control
[4]
  T/C: 105 % of control

## CS(=O)(=O)OC1COCOC1C1OCOCC1OS(C)(=O)=O (stereo not drawn)
dose: 12.5 mg/kg/injection, schedule: Q01DX009 (ip), vehicle: Klucel (hydroxypropylcellulose) (HPC)
  T/C: 91 % of control
dose: 25.0 mg/kg/injection, schedule: Q01DX009 (ip), vehicle: Klucel (hydroxypropylcellulose) (HPC)
  T/C: 92 % of control
[5]
  T/C: 95 % of control
[6]
  T/C: 102 % of control

## CC(=O)Nc1nc(N)nc(NC(C)=O)c1N=O
[7]
  T/C: 110 % of control
[8]
  T/C: 119 % of control
[9]
  T/C: 117 % of control

## COc1cc(NCc2ccc3nc(N)nc(N)c3c2C)cc(OC)c1OC (tested in a mixture with another compound)
dose: 2.6 mg/kg/injection, schedule: Q03HX024 (ip), vehicle: water
  T/C: 166 % of control
dose: 5.0 mg/kg/injection, schedule: Q03HX024 (ip), vehicle: water
  T/C: 182 % of control
dose: 5.2 mg/kg/injection, schedule: Q03HX024 (ip), vehicle: water
  T/C: 192 % of control
dose: 6.25 mg/kg/injection, schedule: Q03HX008 (sc), vehicle: water
  T/C: 114 % of control
dose: 6.9 mg/kg/injection, schedule: Q01DX009 (oral), vehicle: water
  T/C: 119 % of control
dose: 10.0 mg/kg/injection, schedule: Q03HX024 (ip), vehicle: water
  T/C: 201 % of control
dose: 10.4 mg/kg/injection, schedule: Q03HX024 (ip), vehicle: water
  T/C: 217 % of control
dose: 12.5 mg/kg/injection, schedule: Q03HX008 (sc), vehicle: water
  T/C: 118 % of control
dose: 13.8 mg/kg/injection, schedule: Q01DX009 (ip), vehicle: water
  T/C: 175 % of control
dose: 13.8 mg/kg/injection, schedule: Q01DX009 (oral), vehicle: water
  T/C: 156 % of control
dose: 20.0 mg/kg/injection, schedule: Q03HX024 (ip), vehicle: water
  T/C: 230 % of control
dose: 20.8 mg/kg/injection, schedule: Q03HX024 (ip), vehicle: water
  T/C: 233 % of control
dose: 25.0 mg/kg/injection, schedule: Q01DX005 (ip), vehicle: water
  T/C: 153 % of control and 154 % of control
dose: 25.0 mg/kg/injection, schedule: Q01DX005 (sc), vehicle: water
  T/C: 118 % of control
dose: 25.0 mg/kg/injection, schedule: Q03HX008 (sc), vehicle: water
  T/C: 123 % of control
dose: 27.7 mg/kg/injection, schedule: Q01DX009 (ip), vehicle: water
  T/C: 185 % of control
dose: 27.7 mg/kg/injection, schedule: Q01DX009 (oral), vehicle: water
  T/C: 163 % of control
dose: 40.0 mg/kg/injection, schedule: Q03HX024 (ip), vehicle: water
  T/C: 223 % of control
dose: 41.6 mg/kg/injection, schedule: Q03HX024 (ip), vehicle: water
  T/C: 103 % of control
dose: 50.0 mg/kg/injection, schedule: Q01DX005 (ip), vehicle: water
  T/C: 150 % of control and 160 % of control
dose: 50.0 mg/kg/injection, schedule: Q01DX005 (iv), vehicle: water
  T/C: 166 % of control
dose: 55.5 mg/kg/injection, schedule: Q01DX009 (ip), vehicle: water
  T/C: 208 % of control
dose: 55.5 mg/kg/injection, schedule: Q01DX009 (oral), vehicle: water
  T/C: 211 % of control
dose: 62.5 mg/kg/injection, schedule: Q01DX001 (ip), vehicle: water
  T/C: 109 % of control
dose: 62.5 mg/kg/injection, schedule: Q01DX001 (iv), vehicle: water
  T/C: 117 % of control
dose: 75.0 mg/kg/injection, schedule: Q03HX008 (sc), vehicle: water
  T/C: 163 % of control
dose: 100.0 mg/kg/injection, schedule: Q01DX005 (ip), vehicle: water
  T/C: 155 % of control and 173 % of control
dose: 100.0 mg/kg/injection, schedule: Q01DX005 (sc), vehicle: water
  T/C: 163 % of control
dose: 111.1 mg/kg/injection, schedule: Q01DX009 (oral), vehicle: water
  T/C: 98 % of control
dose: 125.0 mg/kg/injection, schedule: Q01DX001 (ip), vehicle: water
  T/C: 115 % of control
dose: 200.0 mg/kg/injection, schedule: Q01DX005 (sc), vehicle: water
  T/C: 95 % of control
dose: 50.0 micrograms per hour, schedule: Q#X X024 (sc), vehicle: water
  T/C: 120 % of control
dose: 50.0 micrograms per hour, schedule: Q#X X048 (sc), vehicle: water
  T/C: 123 % of control
dose: 50.0 micrograms per hour, schedule: Q#X X072 (sc), vehicle: water
  T/C: 163 % of control
dose: 70.0 micrograms per hour, schedule: Q#X X006 (iv), vehicle: water
  T/C: 112 % of control
dose: 85.0 micrograms per hour, schedule: Q#X X006 (iv), vehicle: water
  T/C: 121 % of control
dose: 100.0 micrograms per hour, schedule: Q#X X024 (sc), vehicle: water
  T/C: 118 % of control
dose: 100.0 micrograms per hour, schedule: Q#X X120 (sc), vehicle: water
  T/C: 112 % of control
dose: 200.0 micrograms per hour, schedule: Q#X X072 (sc), vehicle: water
  T/C: 181 % of control
dose: 200.0 micrograms per hour, schedule: Q#X X120 (sc), vehicle: water
  T/C: 94 % of control

## CCN(CC)CCNc1c(OC)cc(C)c2sc3ccccc3c(=O)c12
[7]
  T/C: 115 % of control
[8]
  T/C: 117 % of control

## COC(=O)[C@@]12C(=O)N[C@@H](Cc3ccccc3)[C@@H]1[C@H](C)C(C)=C[C@@H]2CO
[2]
  T/C: 98 % of control
[3]
  T/C: 95 % of control
[4]
  T/C: 98 % of control

## Clc1ccc(COC(Cn2ccnc2)c2ccc(Cl)cc2Cl)c(Cl)c1 (stereo not drawn)
dose: 9.37 mg/kg/injection, schedule: Q01DX009 (ip), vehicle: saline with Tween-80
  T/C: 107 % of control
dose: 18.75 mg/kg/injection, schedule: Q01DX005 (ip), vehicle: saline with Tween-80
  T/C: 99 % of control
dose: 37.5 mg/kg/injection, schedule: Q01DX005 (ip), vehicle: saline with Tween-80
  T/C: 106 % of control
dose: 37.5 mg/kg/injection, schedule: Q01DX009 (ip), vehicle: saline with Tween-80
  T/C: 104 % of control
dose: 75.0 mg/kg/injection, schedule: Q01DX005 (ip), vehicle: saline with Tween-80
  T/C: 108 % of control
dose: 75.0 mg/kg/injection, schedule: Q01DX009 (ip), vehicle: saline with Tween-80
  T/C: 112 % of control
dose: 150.0 mg/kg/injection, schedule: Q01DX005 (ip), vehicle: saline with Tween-80
  T/C: 110 % of control
dose: 150.0 mg/kg/injection, schedule: Q01DX009 (ip), vehicle: saline with Tween-80
  T/C: 107 % of control

## COc1ccc(Oc2c(OC)cc(NCCCCCN3C(=O)c4ccccc4C3=O)c3ncccc23)cc1
[7]
  T/C: 88 % of control
[8]
  T/C: 97 % of control
[9]
  T/C: 89 % of control

## CSC(=Nc1ccc(C)c(Cl)c1)NC#N
[5]
  T/C: 98 % of control
dose: 100.0 mg/kg/injection, schedule: Q01DX009 (ip), vehicle: Klucel (hydroxypropylcellulose) (HPC)
  T/C: 91 % of control
[6]
  T/C: 92 % of control

## CC(C)(C)c1ccc(-c2cc3nc(C(F)(F)F)cc(=O)n3[nH]2)cc1
[1]
  T/C: 89 % of control
[10]
  T/C: 89 % of control
[11]
  T/C: 100 % of control

## CN(C)c1ccc2c(Cl)cc(=O)[nH]c2c1
[1]
  T/C: 97 % of control
[10]
  T/C: 97 % of control
[11]
  T/C: 97 % of control
